ChEMBL document CHEMBL3046116, “QSAR and pharmacophore analysis of thiosemicarbazone derivatives as ribonucleotide reductase inhibitors” (Med Chem Res, 2012)

Molecular target: T1, Ribonucleoside-diphosphate reductase RR1 (Homo sapiens, UniProt P23921+P31350+Q7LG56)
T1 sequence (P23921 whole entry): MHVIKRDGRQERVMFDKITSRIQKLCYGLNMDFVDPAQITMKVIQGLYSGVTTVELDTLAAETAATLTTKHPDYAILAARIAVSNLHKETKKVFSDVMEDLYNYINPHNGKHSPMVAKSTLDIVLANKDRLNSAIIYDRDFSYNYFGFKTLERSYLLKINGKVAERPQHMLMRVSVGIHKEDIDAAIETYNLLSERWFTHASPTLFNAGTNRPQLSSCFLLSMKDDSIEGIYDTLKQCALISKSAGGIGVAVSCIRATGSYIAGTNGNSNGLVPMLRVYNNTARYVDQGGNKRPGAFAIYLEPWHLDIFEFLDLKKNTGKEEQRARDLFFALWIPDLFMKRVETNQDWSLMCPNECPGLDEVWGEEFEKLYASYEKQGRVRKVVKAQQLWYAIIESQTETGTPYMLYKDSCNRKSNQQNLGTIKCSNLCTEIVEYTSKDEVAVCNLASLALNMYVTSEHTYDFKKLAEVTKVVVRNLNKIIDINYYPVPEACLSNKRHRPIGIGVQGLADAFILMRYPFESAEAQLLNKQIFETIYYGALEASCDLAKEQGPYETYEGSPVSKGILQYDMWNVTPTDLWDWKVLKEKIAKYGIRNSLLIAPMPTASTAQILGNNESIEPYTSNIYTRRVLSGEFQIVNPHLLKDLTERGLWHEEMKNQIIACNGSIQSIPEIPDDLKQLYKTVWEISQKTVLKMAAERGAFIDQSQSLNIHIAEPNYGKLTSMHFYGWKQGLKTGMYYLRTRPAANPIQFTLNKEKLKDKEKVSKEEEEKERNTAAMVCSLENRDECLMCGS
T1 sequence (Q7LG56 whole entry): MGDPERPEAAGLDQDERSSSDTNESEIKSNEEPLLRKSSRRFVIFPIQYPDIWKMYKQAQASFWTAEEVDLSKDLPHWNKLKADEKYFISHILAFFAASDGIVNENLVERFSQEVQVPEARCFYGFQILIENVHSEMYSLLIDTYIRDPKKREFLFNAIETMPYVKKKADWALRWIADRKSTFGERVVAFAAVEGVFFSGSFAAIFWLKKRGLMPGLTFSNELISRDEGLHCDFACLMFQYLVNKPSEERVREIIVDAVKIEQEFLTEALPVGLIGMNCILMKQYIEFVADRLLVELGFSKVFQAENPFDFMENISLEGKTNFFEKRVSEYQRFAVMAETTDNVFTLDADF
T1 sequence (P31350 whole entry): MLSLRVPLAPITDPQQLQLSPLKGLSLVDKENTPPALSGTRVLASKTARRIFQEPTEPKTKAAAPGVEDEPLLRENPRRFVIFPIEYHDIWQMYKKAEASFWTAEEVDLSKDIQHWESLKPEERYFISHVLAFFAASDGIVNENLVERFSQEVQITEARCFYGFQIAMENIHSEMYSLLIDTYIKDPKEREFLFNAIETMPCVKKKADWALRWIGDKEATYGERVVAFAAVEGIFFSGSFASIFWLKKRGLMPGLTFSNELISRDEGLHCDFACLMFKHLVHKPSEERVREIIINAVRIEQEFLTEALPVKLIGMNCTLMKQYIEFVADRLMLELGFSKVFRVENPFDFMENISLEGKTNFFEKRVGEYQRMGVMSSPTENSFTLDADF
Experiment: Inhibition of N-terminal 6xHis-tagged Homo sapiens (human) recombinant ribonucleotide reductase M2/M1 expressed in Escherichia coli BL21 (DE3) using [3H]CDP as substrate after 30 min

IC50 [µM]	SMILES
287	Oc1ccc(/C=N/NC(=S)Nc2ccc(Cl)cc2)cc1
30.4	Cc1cccc(NC(=S)N/N=C/c2ccc(O)cc2)c1
29.3	Oc1ccc(/C=N/NC(=S)Nc2cccc(Cl)c2)cc1
28.6	Oc1ccc(/C=N/NC(=S)Nc2cccc(O)c2)cc1

Second part, the compound before the results:

SMILES	IC50 [µM]
Oc1ccc(/C=N/NC(=S)Nc2ccc(O)cc2)cc1	43.3
Oc1ccc(/C=N/NC(=S)Nc2ccccc2)cc1	242
Cc1ccccc1NC(=S)N/N=C/c1ccc(O)cc1	36.5
Oc1ccc(/C=N/NC(=S)Nc2ccccc2Cl)cc1	46.8
O=[N+]([O-])c1ccccc1NC(=S)N/N=C/c1ccc(O)cc1	39.3
O=[N+]([O-])c1ccc(NC(=S)N/N=C/c2ccc(O)cc2)cc1	45.1
Oc1ccc(/C=N/NC(=S)Nc2ccccc2O)cc1	29.3
Cc1ccc(NC(=S)N/N=C/c2ccc(O)cc2)cc1	14.2
COc1ccccc1NC(=S)N/N=C/c1ccc(O)cc1	41.6
